Columns and labels:
[1] = system: B6μ, Heμ and CXμ mice; conditions: mouse, in vivo, ip, 10 mg/kg
[2] = system: B6μ, Heμ and CXμ mice; assay: hot-plate test; assay type: in vivo, mouse; conditions: CXμ mice vs B6μ and Heμ littermates; 10 mg/kg intraperitoneal; 20 minutes after injection; plate 52.0°C; p<0.05

For `CN1CC[C@]23c4c5ccc(O)c4O[C@H]2[C@@H](O)C=C[C@H]3[C@H]1C5.Cl` [morphine, Morphine hydrochloride], the “latency of response to heat stimulus (drug-induced analgesia), tail-flick test” value [1] was “significantly shorter latency than the littermates” and the “latency of response to heat stimulus (first jumping; drug-induced analgesia), hot-plate test” value [2] was “significantly shorter latency than the littermates”.

Source: patent publication US20030003050A1 (priority 2001, published 2003)
